Data: patent US11608319B2, “Beta-amino acid derivative, kinase inhibitor and pharmaceutical composition containing the same, and method for performing an in vivo related application that benefits from the inhibition of a kinase” (Industrial Technology Research Institute, priority 2019, dated 2023)
Counter-ions that a name gives are not always drawn. Like-named read-outs stand apart in the source and are kept apart here.

What was measured:
ROCK1 = ROCK1 (Homo sapiens (Human), UniProt Q13464); experiment: biochemical
ROCK1, sequence (Q13464 whole entry, species assumed): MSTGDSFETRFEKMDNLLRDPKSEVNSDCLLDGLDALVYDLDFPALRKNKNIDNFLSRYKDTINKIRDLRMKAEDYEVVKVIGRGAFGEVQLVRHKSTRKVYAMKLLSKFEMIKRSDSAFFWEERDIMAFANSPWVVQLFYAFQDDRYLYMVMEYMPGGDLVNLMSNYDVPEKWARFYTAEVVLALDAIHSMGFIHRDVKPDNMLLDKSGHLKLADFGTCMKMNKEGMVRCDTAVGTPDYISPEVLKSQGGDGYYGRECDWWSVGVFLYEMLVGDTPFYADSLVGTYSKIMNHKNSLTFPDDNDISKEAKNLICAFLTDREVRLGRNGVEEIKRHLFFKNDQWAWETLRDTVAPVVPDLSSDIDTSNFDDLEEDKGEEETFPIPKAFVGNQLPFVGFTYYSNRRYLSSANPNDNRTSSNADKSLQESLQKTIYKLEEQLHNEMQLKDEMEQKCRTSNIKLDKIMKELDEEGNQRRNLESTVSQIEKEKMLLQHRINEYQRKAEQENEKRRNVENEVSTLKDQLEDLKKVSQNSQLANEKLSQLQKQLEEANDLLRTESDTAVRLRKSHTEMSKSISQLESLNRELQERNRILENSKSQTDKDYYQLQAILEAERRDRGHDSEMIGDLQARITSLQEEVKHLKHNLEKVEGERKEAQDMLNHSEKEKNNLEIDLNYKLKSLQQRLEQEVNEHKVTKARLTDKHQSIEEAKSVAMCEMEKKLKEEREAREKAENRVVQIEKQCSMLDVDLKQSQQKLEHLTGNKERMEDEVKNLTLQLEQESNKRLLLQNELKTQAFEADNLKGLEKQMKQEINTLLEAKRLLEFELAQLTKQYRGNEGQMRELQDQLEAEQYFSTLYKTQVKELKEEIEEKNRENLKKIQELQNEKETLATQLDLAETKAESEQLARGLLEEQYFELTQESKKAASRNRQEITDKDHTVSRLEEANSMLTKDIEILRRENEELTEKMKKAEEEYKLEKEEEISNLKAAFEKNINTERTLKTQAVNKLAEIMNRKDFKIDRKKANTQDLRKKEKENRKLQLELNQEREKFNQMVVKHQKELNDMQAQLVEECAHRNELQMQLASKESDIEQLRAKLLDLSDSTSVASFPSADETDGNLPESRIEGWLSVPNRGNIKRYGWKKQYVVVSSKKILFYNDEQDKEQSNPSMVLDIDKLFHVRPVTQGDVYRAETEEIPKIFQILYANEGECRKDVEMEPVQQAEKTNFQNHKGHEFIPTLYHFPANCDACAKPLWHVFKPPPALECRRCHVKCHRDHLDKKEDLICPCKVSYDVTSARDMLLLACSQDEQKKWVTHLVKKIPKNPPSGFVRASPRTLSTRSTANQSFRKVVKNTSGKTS

MYLK4 = MYLK4 (Homo sapiens (Human), UniProt Q86YV6); experiment: Assay for inhibitory effect on MYLK-4, LanthaScreen Eu Kinase Binding Assay
MYLK4, sequence (Q86YV6 whole entry): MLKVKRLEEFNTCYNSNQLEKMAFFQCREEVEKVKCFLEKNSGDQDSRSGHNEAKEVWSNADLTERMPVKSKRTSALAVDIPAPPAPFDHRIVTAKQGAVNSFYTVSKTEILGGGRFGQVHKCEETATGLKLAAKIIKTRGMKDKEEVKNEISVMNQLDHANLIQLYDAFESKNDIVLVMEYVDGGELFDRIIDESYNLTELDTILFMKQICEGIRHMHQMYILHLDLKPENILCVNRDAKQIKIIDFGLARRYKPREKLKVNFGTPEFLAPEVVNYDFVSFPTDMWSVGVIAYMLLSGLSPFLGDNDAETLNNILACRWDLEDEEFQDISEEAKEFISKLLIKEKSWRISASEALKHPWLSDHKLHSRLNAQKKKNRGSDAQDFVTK

YSK4 = YSK4 (Homo sapiens (Human), UniProt Q56UN5); experiment: Assay for inhibitory effect on YSK-4, Z'-LYTE kinase assay; type: biochemical; details: ATP 5 μM
YSK4, sequence (Q56UN5 whole entry): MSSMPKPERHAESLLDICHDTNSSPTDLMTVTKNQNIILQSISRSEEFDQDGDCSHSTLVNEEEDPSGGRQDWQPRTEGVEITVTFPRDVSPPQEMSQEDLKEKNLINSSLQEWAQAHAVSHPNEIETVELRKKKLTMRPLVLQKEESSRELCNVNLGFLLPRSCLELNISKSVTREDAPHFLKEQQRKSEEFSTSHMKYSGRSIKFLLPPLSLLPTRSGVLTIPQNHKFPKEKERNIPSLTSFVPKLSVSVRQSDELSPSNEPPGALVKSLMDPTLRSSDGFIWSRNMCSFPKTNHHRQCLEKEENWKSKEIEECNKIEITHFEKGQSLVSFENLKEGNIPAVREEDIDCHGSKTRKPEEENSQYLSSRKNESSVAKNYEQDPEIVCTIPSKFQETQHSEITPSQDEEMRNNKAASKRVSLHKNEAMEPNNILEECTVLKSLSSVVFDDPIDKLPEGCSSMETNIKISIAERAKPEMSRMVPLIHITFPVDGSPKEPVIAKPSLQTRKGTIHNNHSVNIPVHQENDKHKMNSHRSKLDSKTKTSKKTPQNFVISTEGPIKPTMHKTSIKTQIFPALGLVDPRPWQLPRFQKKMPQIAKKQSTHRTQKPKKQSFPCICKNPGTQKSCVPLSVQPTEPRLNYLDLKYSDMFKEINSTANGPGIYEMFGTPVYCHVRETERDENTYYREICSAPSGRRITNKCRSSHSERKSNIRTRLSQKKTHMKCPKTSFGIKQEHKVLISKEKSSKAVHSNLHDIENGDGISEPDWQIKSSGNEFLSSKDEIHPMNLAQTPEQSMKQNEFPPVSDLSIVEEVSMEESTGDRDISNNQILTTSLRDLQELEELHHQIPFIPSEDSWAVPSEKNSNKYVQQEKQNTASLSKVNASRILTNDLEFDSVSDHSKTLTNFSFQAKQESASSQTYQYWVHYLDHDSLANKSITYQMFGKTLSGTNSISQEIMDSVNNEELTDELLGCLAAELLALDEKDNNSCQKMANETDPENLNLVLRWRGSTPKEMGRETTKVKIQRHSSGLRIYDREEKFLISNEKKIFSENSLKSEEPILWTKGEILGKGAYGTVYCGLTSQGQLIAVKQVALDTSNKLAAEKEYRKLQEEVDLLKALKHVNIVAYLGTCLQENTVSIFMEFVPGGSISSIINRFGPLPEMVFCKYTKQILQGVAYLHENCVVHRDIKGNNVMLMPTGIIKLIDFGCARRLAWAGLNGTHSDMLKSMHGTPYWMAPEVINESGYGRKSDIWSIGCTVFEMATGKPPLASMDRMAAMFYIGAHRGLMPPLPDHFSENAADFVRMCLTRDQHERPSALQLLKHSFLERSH
Procedure: C. Assay for Inhibitory Effect on YSK-4
The experimental procedure referred to the Z′-LYTE Screening Protocol and Assay Conditions provided by ThermoFisher Scientific.
C-1. Material Preparation
Peptide/Kinase Mixture was pre-diluted with Kinase Buffer to 2× working concentration.
ATP solution was pre-diluted with Kinase Buffer (50 mM HEPES pH 7.5, 0.01% BRIJ-35, 10 mM MgCl2, 1 mM EGTA) to 4× working concentration.
The development reagent solution is Novel PKC Lipid Mix, which contains 2 mg/mL Phosphatidyl Serine, 0.2 mg/mL DAG in 20 mM HEPES, pH 7.4 and 0.3% CHAPS, and was pre-diluted 10 fold with development buffer.
1. 100 nL of the above diluted test compound and 2.4 μL of kinase buffer were added to a black 384-well plate (Corning, Cat. NO. 4514), then add 5 μL of the peptide/kinase mixture mentioned above was added thereto, and after that 2.5 μL of ATP solution was added thereto, and the culture plate was shaken for 30 seconds.
2. Next, the culture plate was placed at room temperature and incubated for 60 minutes.
3. After that 5 μL of the development reagent solution was added and the culture plate was shaken for 30 seconds in the dark, and then the data was read and analyzed with a fluorescence plate reader.
In addition, for the kinase, the following control group was prepared and placed on the same culture plate as the kinase:
(1) 0% Phosphorylation Control (100% Inhibition Control)
This control yields 100% cleaved peptide in the Development Reaction.
(2) 100% Phosphorylation Control
A synthetically phosphorylated peptide of the same sequence as the peptide substrate is used as the 100% Phosphorylation Control.
The Phosphorylation percent achieved in a specific reaction well (Experimental group) was calculated based on the 0% Phosphorylation Control and 100% Phosphorylation Control.

[1] = test system: rabbit eyes with normal intraocular pressure; experiment: Evaluation of the effect of decreasing intraocular pressure in a model of rabbit with normal intraocular pressure; type: in vivo, New Zealand white rabbit; details: for Intraocular pressure difference (mmHg): at time point of maximum effect
Procedure: Evaluation of the Effect of Decreasing Intraocular Pressure in a Model of Rabbit with Normal Intraocular Pressure
Experimental animal: New Zealand white rabbit, male, weighing more than 2 kg. New Zealand white rabbits were purchased from Huijun Farm (Changhua, Taiwan). After a one-week quarantine period, they were raised in MASTER LABORATORY Co., Ltd under the environmental conditions of 16-22° C., 30-70% relative humidity (RH), 8 hours day/16 hours night.
(1) Evaluation of the Effect of Reducing Intraocular Pressure
After weighing 12 New Zealand white rabbits (2.0-4.0 kg) and grouping them (n=3-6 in each group), the white rabbits were fixed with a wrap.

[2] = test system: rabbit eyes with normal intraocular pressure; details: eye drop concentration
Procedure: The maximal effect (Emax) dose evaluation of the intraocular pressure reduction model in normal rabbit
Animals: Male New Zealand white rabbits (n=7/each group);
Administration: 50 μL of the test compound was instilled in the right eye (dosed eye) and 50 μL of the vehicle (without the test compound) in the left eye (control eye) of each experimental animal. The 3 formulation mentioned above were administered once a day for 3 consecutive days.
The intraocular pressure of each animal was measured by Tono-Vet (iCare) before administration (0 hours) and 2, 4, 6 and 8 hours after administration on Day 1 and Day 3.
The maximum magnitude of the reduction in intraocular pressure %=(Intraocular pressure of the control eye−Intraocular pressure of the dosed eye)/Intraocular pressure of the control eye*100
The data presented in this experiment is the data that has removed the unqualified data (white rabbits with an intraocular pressure difference ≥2 mmHg (n=1) in the two eyes on Day 1 and >5 mmHg in the two eyes before the administration on the Day 3 (n=1) have been removed) and removed the rebound high intraocular pressure (n=3).

Row | Compound | IC50 (MYLK4) | IC50 (ROCK1) | IC50 (YSK4) | also measured
1 | NC[C@@H](C(=O)Nc1ccc2cnccc2c1)c1ccc(CO)cc1 [AR-13503, reference compound] | 100 to 1000 nM |  |  | IC50 (ROCK1; read-out: ROCK1 IC50): < 1 nM
2 | [N-]=[N+]=NC(CN)C(=O)Nc1ccc(-c2cn[nH]c2)cc1 (centres unmarked) [Compound 1, N-(4-(1H-pyrazol-4-yl)phenyl)-3-amino-2-azidopropanamide dihydrochloride] | 100 to 1000 nM | 100 to 1000 nM | > 10000 nM | 
3 | NCC(C(=O)Nc1ccc(-c2cn[nH]c2)cc1)n1cc(-c2ccccc2)nn1 (centres unmarked) [Compound 2, dihydrochloride] | 100 to 1000 nM | 10 to 100 nM | > 10000 nM | 
4 | NCC(O)C(=O)Nc1ccc(-c2cn[nH]c2)cc1 (centres unmarked) [Compound 3, N-(4-(1H-pyrazol-4-yl)phenyl)-3-amino-2-hydroxypropanamide dihydrochloride] |  | 100 to 1000 nM |  | 
5 | NCC(Oc1ccccc1)C(=O)Nc1ccc(-c2cn[nH]c2)cc1 (centres unmarked) [Compound 4, N-(4-(1H-pyrazol-4-yl)phenyl)-3-amino-2-phenoxypropanamide dihydrochloride] |  | 1 to 10 nM |  | time point at which maximum effect is achieved ([1]; dose 1%): 2 h; Intraocular pressure difference (mmHg) ([1]; dose 1%): 4.2 mmHg; maximum effect (Emax) dose in the normal intraocular pressure rabbit model [2]: 1%
6 | NCC(Oc1ccc(C(F)(F)F)cc1)C(=O)Nc1ccc(-c2cn[nH]c2)cc1 (centres unmarked) [Compound 5, N-(4-(1H-pyrazol-4-yl)phenyl)-3-amino-2-(4-(trifluoromethyl)phenoxy)propenamide dihydrochloride] | 100 to 1000 nM | 1 to 10 nM |  | time point at which maximum effect is achieved ([1]; dose 1%): 6 h; Intraocular pressure difference (mmHg) ([1]; dose 1%): 1.5 mmHg; maximum effect (Emax) dose in the normal intraocular pressure rabbit model [2]: 1%
7 | NCC(OCc1ccccc1)C(=O)Nc1ccc(-c2cn[nH]c2)cc1 (centres unmarked) [Compound 6, N-(4-(1H-pyrazol-4-yl)phenyl)-3-amino-2-(benzyloxy) propanamidedihydrochloride] | 100 to 1000 nM | 10 to 100 nM | > 10000 nM | 
8 | NCC(C(=O)Nc1ccc(-c2cn[nH]c2)cc1)c1ccc(O)cc1 (centres unmarked) [Compound 9, N-(4-(1H-pyrazol-4-yl)phenyl)-3-amino-2-(4-hydroxyphenyl) propanamide dihydrochloride] |  | 1 to 10 nM |  | 
9 | Cc1ccc(C(=O)Oc2ccc(C(CN)C(=O)Nc3ccc(-c4cn[nH]c4)cc3)cc2)c(C)c1 (centres unmarked) [Compound 10, 4-(1-((4-(1H-pyrazol-4-yl)phenyl)amino)-3-amino-1-oxopropan-2-yl)phenyl 2,4-dimethylbenzoate dihydrochloride] | > 1000 nM | 100 to 1000 nM | > 10000 nM | 
10 | NCC(C(=O)Nc1ccc(-c2cn[nH]c2)cc1)c1ccc(CO)cc1 (centres unmarked) [Compound 11, N-(4-(1H-pyrazol-4-yl)phenyl)-3-amino-2-(4-(hydroxymethyl)phenyl)propenamide dihydrochloride] | 100 to 1000 nM | 1 to 10 nM |  | time point at which maximum effect is achieved ([1]; dose 0.5%): 1 h; Intraocular pressure difference (mmHg) ([1]; dose 0.5%): 2.0 mmHg; maximum effect (Emax) dose in the normal intraocular pressure rabbit model [2]: 0.5%
11 | NCC(C(=O)Nc1ccc(-c2cn[nH]c2)cc1)c1ccc(C=O)cc1 (centres unmarked) [Compound 13, N-(4-(1H-pyrazol-4-yl)phenyl)-3-amino-2-(4-formylphenyl)propanamide dihydrochloride] | 100 to 1000 nM |  | > 1000 nM | IC50 (ROCK1; read-out: ROCK1 IC50): < 1 nM
12 | NCC(NC(=S)Nc1ccc(-c2cn[nH]c2)cc1)c1ccccc1 (centres unmarked) [Compound 15, 1-(4-(1H-pyrazol-4-yl)phenyl)-3-(2-amino-1-phenylethyl)thiourea dihydrochloride] | 100 to 1000 nM | 100 to 1000 nM | > 10000 nM | 
13 | NCC(C(=O)Nc1ccc(Oc2cn[nH]c2)cc1)c1ccccc1 (centres unmarked) [Compound 18, N-(4-((1H-pyrazol-4-yl)oxy)phenyl)-3-amino-2-phenylpropanamide dihydrochloride] |  |  |  | IC50 (ROCK1; read-out: ROCK1 IC50): > 10000 nM
14 | NC[C@H](C(=O)Nc1ccc(-c2cn[nH]c2)cc1)c1ccccc1 [Compound 21, (R)—N-(4-(1H-pyrazol-4-yl)phenyl)-3-amino-2-phenylpropanamide dihydrochloride] | 100 to 1000 nM | 100 to 1000 nM |  | time point at which maximum effect is achieved ([1]; dose 0.03%): 8 h; Intraocular pressure difference (mmHg) ([1]; dose 0.03%): 1.3 mmHg
